Experimental data from article PMC3975887, “The structures of cytosolic and plastid-located glutamine synthetases from Medicago truncatula reveal a common and dynamic architecture” (Acta Crystallographica Section D: Biological Crystallography, 2014).
Where two headings read alike, the source gives them in different places.

Legend:
M. truncatula GSII-2b = biological target: T1, M. truncatula GSII-2b (Medicago truncatula, UniProt E1ANG4); experiment: GS synthetase reaction inhibition, GSII-2b; assay type: biochemical
T1 sequence (E1ANG4 50-428): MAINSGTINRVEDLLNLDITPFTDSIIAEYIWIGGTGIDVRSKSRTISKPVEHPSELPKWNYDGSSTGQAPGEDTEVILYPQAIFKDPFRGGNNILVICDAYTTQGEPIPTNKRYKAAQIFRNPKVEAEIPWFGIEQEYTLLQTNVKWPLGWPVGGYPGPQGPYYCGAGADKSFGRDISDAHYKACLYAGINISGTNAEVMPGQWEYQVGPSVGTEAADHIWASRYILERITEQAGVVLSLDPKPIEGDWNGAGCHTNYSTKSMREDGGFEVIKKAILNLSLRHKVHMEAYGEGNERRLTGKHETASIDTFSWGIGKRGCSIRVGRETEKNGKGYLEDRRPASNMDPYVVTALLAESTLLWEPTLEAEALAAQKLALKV
Description: (§1) The activities of the His-tagged GS isoenzymes (GSII-1a, GSII-1b, GSII-2a and GSII-2b) were determined by quantifying the γ-glutamyl hydroxamate produced by the synthetase reaction (GSs) as described previously (Cullimore & Sims, 1981[▶]; Cullimore et al., 1982[▶]). The reactions started by the addition of 10 µg purified His-tagged GS isoenzyme to the assay mixture (100 mM Tris buffer pH 7.8, 100 mM glutamate, 8 mM ATP, 8 mM hydroxylamine, 16 mM MgSO4) were allowed to proceed at 30°C for 15 min and were stopped by adding one volume of stop solution (0.37 M FeCl3, 0.67 M HCl, 0.2 M TCA). GS specific activity was determined as the amount of γ-glutamyl hydroxamate produced per minute per milligram of purified protein (µmol min^−1 mg^−1). GS inhibition was evaluated by adding increasing concentrations of either phosphinothricin (PPT; Fluka; 0, 0.005, 0.01, 0.05, 0.1, 0.5, 1, 1.5, 2.5, 5, 10 and 20 mM) or methionine-S-sulfoximine (MSO; Sigma; 0, 0.5, 1, 1.5, 2.5, 5, 10, 20, 40 and 60 mM) to the reaction mixture. GS inhibition assays were performed at two different glutamate concentrations (20 and 100 mM). IC50 was calculated by nonlinear regression using the LogIC50 equation of GraphPad Prism5 (GraphPad Software).

M. truncatula GSII-1b = biological target: T2, M. truncatula GSII-1b (Medicago truncatula, UniProt O04999); experiment: GS synthetase reaction inhibition, GSII-1b; assay type: biochemical
T2 sequence (O04999 1-356): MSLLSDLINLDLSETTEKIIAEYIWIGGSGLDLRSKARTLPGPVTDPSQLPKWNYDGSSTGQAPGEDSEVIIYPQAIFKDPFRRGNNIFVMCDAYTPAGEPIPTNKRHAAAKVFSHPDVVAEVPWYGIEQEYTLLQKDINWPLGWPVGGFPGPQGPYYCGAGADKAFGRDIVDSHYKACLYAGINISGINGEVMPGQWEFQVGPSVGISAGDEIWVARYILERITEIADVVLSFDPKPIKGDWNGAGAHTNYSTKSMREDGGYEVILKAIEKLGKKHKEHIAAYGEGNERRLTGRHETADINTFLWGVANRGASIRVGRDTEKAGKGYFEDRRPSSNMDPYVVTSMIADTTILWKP
Description: as §1

plant GSII = test system: plant GSII; design: method as in Evstigneeva et al., 2003; conditions: plant GSII overall; ref Evstigneeva et al., 2003; cited from earlier work
M. truncatula GSII-2a = biological target: T3, M. truncatula GSII-2a (Medicago truncatula, UniProt Q84UC1); experiment: GS synthetase reaction inhibition, GSII-2a; assay type: biochemical
T3 sequence (Q84UC1 50-428): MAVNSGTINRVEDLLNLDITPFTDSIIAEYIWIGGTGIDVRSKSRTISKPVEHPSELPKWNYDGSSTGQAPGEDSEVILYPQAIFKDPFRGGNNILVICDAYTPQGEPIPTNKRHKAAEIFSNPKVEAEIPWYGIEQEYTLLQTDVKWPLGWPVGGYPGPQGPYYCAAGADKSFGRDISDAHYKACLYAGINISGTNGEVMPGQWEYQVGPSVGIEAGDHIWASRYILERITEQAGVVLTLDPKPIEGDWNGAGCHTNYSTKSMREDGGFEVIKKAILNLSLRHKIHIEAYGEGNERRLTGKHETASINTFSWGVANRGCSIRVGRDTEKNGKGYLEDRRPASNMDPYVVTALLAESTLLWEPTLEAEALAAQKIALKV
Description: as §1

M. truncatula GSII-1a = biological target: T4, M. truncatula GSII-1a (Medicago truncatula, UniProt O04998); experiment: GS synthetase reaction inhibition, GSII-1a; assay type: biochemical
T4 sequence (O04998 1-356): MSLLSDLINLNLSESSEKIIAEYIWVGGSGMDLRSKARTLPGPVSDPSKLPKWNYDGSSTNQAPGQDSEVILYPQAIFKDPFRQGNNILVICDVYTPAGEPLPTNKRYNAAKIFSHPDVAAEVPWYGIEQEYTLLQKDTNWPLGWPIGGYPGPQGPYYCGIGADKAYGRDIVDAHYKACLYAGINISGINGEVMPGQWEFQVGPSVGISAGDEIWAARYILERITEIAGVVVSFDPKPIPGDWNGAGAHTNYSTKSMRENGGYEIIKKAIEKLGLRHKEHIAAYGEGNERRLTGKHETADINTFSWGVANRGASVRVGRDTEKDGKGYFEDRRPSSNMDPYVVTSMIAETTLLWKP
Description: as §1

[1] = biological target: Medicago truncatula plastid-located glutamine synthetase GSII-2a (mature polypeptide) (Medicago truncatula); experiment: cryo-EM structure; purified GSII-2a 0.3 mg/ml vitrified; single-particle reconstruction with D5 symmetry applied, 3117 side-view particles with parallel rings, 20 Å
[2] = biological target: Medicago truncatula plastid-located glutamine synthetase GSII-2a (mature polypeptide) (Medicago truncatula); experiment: native MS; high activation conditions: collision energy increased from 100 to 200 V; ammonium acetate buffer pH 7.5; decamer to pentamers in the gas phase
[3] = biological target: Medicago truncatula plastid-located glutamine synthetase GSII-2a (mature polypeptide) (Medicago truncatula); experiment: native MS; nondenaturing conditions, ammonium acetate buffer pH 7.5, nano-electrospray, capillary voltage 1700 V, cone potential 50 V
[4] = biological target: Medicago truncatula plastid-located glutamine synthetase GSII-2a (mature polypeptide) (Medicago truncatula); experiment: native MS; high activation conditions: collision energy increased from 100 to 200 V; ammonium acetate buffer pH 7.5; decamer to pentamers in the gas phase; remark: listed apart in the source
[5] = biological target: the molecule itself; experiment: crystal structure; apo form, space group P2_(1), decamer in the asymmetric unit, 2.35 Å
[6] = standard GS assay conditions (100 mM glutamate)
[7] = MSO titration using 20 mM glutamate, His-tagged enzyme, read-out: IC50 (concentration of inhibitor reducing the GS activity by 50%)

Q: What does the source list for `CP(=O)(O)CC[C@H](N)C(=O)O` [PPT, phosphinothricin]?
A: IC50 (M. truncatula GSII-2b): 720 µM; IC50 (M. truncatula GSII-1b): 670 µM; times more effectively inhibited by PPT than by MSO (plant GSII): 5–10 times; IC50 (M. truncatula GSII-2a): 260 µM; IC50 (M. truncatula GSII-1a): 760 µM

Q: What does the source list for `CS(=N)(=O)CC[C@H](N)C(=O)O` (some centres unmarked) [MSO, methionine-S-sulfoximine]?
A: GS inhibition under the standard GS assay conditions (M. truncatula GSII-2b; [6]): poorly inhibited; IC50 (M. truncatula GSII-1b; [7]): 2200 µM; GS inhibition under the standard GS assay conditions (M. truncatula GSII-1b; [6]): poorly inhibited; IC50 (M. truncatula GSII-2a; [7]): 3600 µM; GS inhibition under the standard GS assay conditions (M. truncatula GSII-2a; [6]): poorly inhibited; IC50 (M. truncatula GSII-1a; [7]): 9500 µM; GS inhibition under the standard GS assay conditions (M. truncatula GSII-1a; [6]): poorly inhibited

Q: What does the source list for “Medicago truncatula plastid-located glutamine synthetase GSII-2a (mature polypeptide) (enzyme)”?
A: stoichiometry N [1]: 10; stoichiometry N [2]: 5; stoichiometry N [3]: 10; stoichiometry N [4]: 10

B1: Medicago truncatula cytosolic glutamine synthetase GSII-1a (enzyme, UniProt O04998 1-356, looked up)
chain: T4 sequence (O04998 1-356)
notes: Glutamine synthetase GSII-1a, cytosolic, Medicago truncatula, UniProt O04998; Apo form; also called MtGSII-1a; MtGSII1a; source: recombinant, N-terminally His-tagged; cloning and crystallisation described previously (Seabra et al., 2009); not shown: His tag, N-terminal, kept; copies: 10
Q: For B1, which “stoichiometry N” value [5] is on record?
A: 10
